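Cells were grown in 96-well plates and exposed to each compound for 48 hours at five concentrations; endpoints were interpolated linearly between bracketing concentrations, or set to the highest concentration if not reached. GI50 is the concentration that inhibits growth by half.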 Activity calls are given as the source filed them. Cut-off read from the data, not from the text of the source: active = GI50 up to about 1.1 µM and inactive = higher.
Columns and labels:
Assay in all cases: NCI-60 cell line screen, 48 h
SR = test system: SR
IGROV-1 = test system: IGROV-1
OVCAR-5 = test system: OVCAR-5
OVCAR-4 = test system: OVCAR-4
HCC 2998 = test system: HCC 2998
HCT-15 = test system: HCT-15
UACC-62 = test system: UACC-62
COLO 205 = test system: COLO 205
A549 = test system: A549
RPMI-8226 = test system: RPMI-8226
NCI-H23 = test system: NCI-H23
LOX IMVI = test system: LOX IMVI
SF-268 = test system: SF-268
SF-295 = test system: SF-295
NCI-H460 = test system: NCI-H460
CAKI-1 = test system: CAKI-1
Malme-3M = test system: Malme-3M
PC-3 = test system: PC-3
A498 = test system: A498

Structure (SMILES) | GI50 (SR) | GI50 (IGROV-1) | GI50 (OVCAR-5) | GI50 (OVCAR-4) | GI50 (HCC 2998) | GI50 (HCT-15) [µM] | GI50 (UACC-62) | GI50 (COLO 205) | GI50 (A549) | GI50 (RPMI-8226) | GI50 (NCI-H23) | GI50 (LOX IMVI) | GI50 (SF-268) | GI50 (SF-295) | GI50 (NCI-H460) | GI50 (CAKI-1) | GI50 (Malme-3M) | GI50 (PC-3) | GI50 (A498)
CN(C)CCNC(=O)c1ccccc1Nc1c(Cl)cccc1Cl | 12.6 µM (inactive) | 18.2 µM (inactive) | 10.4 µM (inactive) | 14.6 µM (inactive) | 10.6 µM (inactive) | 14.8 | 16.1 µM (inactive) | 11.6 µM (inactive) | 10.9 µM (inactive) | 11.9 µM (inactive) | 17.1 µM (inactive) | 12.8 µM (inactive) | 16.2 µM (inactive) |  |  |  |  |  | 
CC[C@H](NC1=C(Cl)C(=O)c2c(O)ccc(O)c2C1=O)C(=O)OC | 1.64 µM (inactive) | > 10 µM (inactive) | > 10 µM (inactive) | 7.71 µM (inactive) |  | 5.33 | > 10 µM (inactive) | 3.58 µM (inactive) | > 10 µM (inactive) | > 10 µM (inactive) | > 10 µM (inactive) | 3.64 µM (inactive) | 4.13 µM (inactive) | > 10 µM (inactive) | > 10 µM (inactive) | > 10 µM (inactive) | 4.28 µM (inactive) | 6.9 µM (inactive) | 
C=CCN(N=O)C(=O)N(CCCC(NC(C)=O)C(=O)NCc1ccccc1)Cc1ccccc1 (stereo not drawn) |  | > 100 µM (inactive) | > 100 µM (inactive) | 36.1 µM (inactive) |  | 73.8 | 49.8 µM (inactive) | 90.4 µM (inactive) | 61.9 µM (inactive) | 18.2 µM (inactive) | > 100 µM (inactive) | 46.9 µM (inactive) | 62.2 µM (inactive) | 38.5 µM (inactive) | 55.8 µM (inactive) | 30.5 µM (inactive) | 98.4 µM (inactive) |  | 99.3 µM (inactive)
COc1ccccc1NC(=O)CC(=O)NNCC(=O)Nc1nnc(-c2ccccc2)o1 | > 100 µM (inactive) | > 100 µM (inactive) | > 100 µM (inactive) | > 100 µM (inactive) | > 100 µM (inactive) | > 100 | > 100 µM (inactive) | > 100 µM (inactive) | > 100 µM (inactive) | > 100 µM (inactive) | > 100 µM (inactive) | > 100 µM (inactive) | > 100 µM (inactive) | > 100 µM (inactive) |  | > 100 µM (inactive) |  |  | > 100 µM (inactive)
Oc1ccc(Cl)cc1/N=N\c1c(O)ccc2ccccc12 | > 100 µM (inactive) | > 100 µM (inactive) | > 100 µM (inactive) | > 100 µM (inactive) |  | > 100 | > 100 µM (inactive) | > 100 µM (inactive) | > 100 µM (inactive) | > 100 µM (inactive) | > 100 µM (inactive) | 60.7 µM (inactive) | > 100 µM (inactive) | > 100 µM (inactive) |  | > 100 µM (inactive) | 22.2 µM (inactive) | > 100 µM (inactive) | 
O=c1c(-c2ccccc2)c(SCCO)n(-c2ccccc2)c(=S)n1-c1ccccc1 | > 100 µM (inactive) | > 100 µM (inactive) | > 100 µM (inactive) | > 100 µM (inactive) |  | > 100 | 39.7 µM (inactive) | > 100 µM (inactive) | > 100 µM (inactive) | > 100 µM (inactive) | > 100 µM (inactive) | > 100 µM (inactive) | > 100 µM (inactive) | > 100 µM (inactive) | > 100 µM (inactive) | > 100 µM (inactive) | > 100 µM (inactive) | > 100 µM (inactive) | 
CCOC(=O)C(C(=O)COC(C)(C)C)[C@@H]1C=C[C@H](OC(C)=O)C1 (stereo partly drawn) |  |  | > 100 µM (inactive) | > 100 µM (inactive) | > 100 µM (inactive) | > 100 | > 100 µM (inactive) | > 100 µM (inactive) | > 100 µM (inactive) | > 100 µM (inactive) | > 100 µM (inactive) |  | > 100 µM (inactive) | > 100 µM (inactive) | > 100 µM (inactive) | > 100 µM (inactive) | > 100 µM (inactive) | > 100 µM (inactive) | > 100 µM (inactive)
O=[N+]([O-])c1ccc2nc3c(nc2c1)-c1c2ccccc2cc2cccc-3c12 |  | 4.43 µM (inactive) | 51.8 µM (inactive) | 24.3 µM (inactive) | 33.3 µM (inactive) | 6.28 | 10.5 µM (inactive) | > 100 µM (inactive) | 48.6 µM (inactive) | 17.7 µM (inactive) | 3.61 µM (inactive) | 4.8 µM (inactive) | 13.8 µM (inactive) | 19.6 µM (inactive) | 19.7 µM (inactive) | 9.77 µM (inactive) | 19 µM (inactive) | 9.55 µM (inactive) | 0.427 µM (active)
C/C(=N/NC(=S)Nc1ccc(C)cc1)c1ccccn1 |  | < 0.0155 µM (active) | 0.0493 µM (active) | 1.47 µM (inactive) | 3.48 µM (inactive) | 0.0221 | 0.105 µM (active) | < 0.0166 µM (active) | 0.5 µM (active) | < 0.0156 µM (active) | < 0.0185 µM (active) | 0.0162 µM (active) | 0.114 µM (active) | 0.193 µM (active) | 0.263 µM (active) | 0.0968 µM (active) | 0.505 µM (active) | < 0.0153 µM (active) | 2.51 µM (inactive)
Cc1nnc(N2C(=O)C(=Cc3ccc(Cl)cc3)N=C2c2ccc(Cl)cc2)nc1/C=C\c1ccc(N(C)C)cc1 |  | > 100 µM (inactive) | > 100 µM (inactive) | > 100 µM (inactive) | > 100 µM (inactive) | > 100 | > 100 µM (inactive) | > 100 µM (inactive) | > 100 µM (inactive) | 72.3 µM (inactive) | > 100 µM (inactive) | > 100 µM (inactive) | > 100 µM (inactive) | > 100 µM (inactive) | > 100 µM (inactive) | > 100 µM (inactive) | > 100 µM (inactive) | > 100 µM (inactive) | > 100 µM (inactive)
O=C(NCCNCCCNC(=O)c1cc(-c2ccccc2)nc2ccccc12)c1cccc(O)c1O |  | 7.82 µM (inactive) | 2.28 µM (inactive) |  | 3.73 µM (inactive) | 5.36 | 2.27 µM (inactive) | 3.18 µM (inactive) | 4.72 µM (inactive) | 2.85 µM (inactive) | 6.14 µM (inactive) | 3.33 µM (inactive) | 2.86 µM (inactive) | 1.84 µM (inactive) | 2.36 µM (inactive) | 5.4 µM (inactive) | 3.82 µM (inactive) | 5.94 µM (inactive) | 15.8 µM (inactive)
Nc1ccc(C(=O)N/C(=C\c2cccc([N+](=O)[O-])c2)c2nc3cc(Cl)ccc3[nH]2)cc1 | > 100 µM (inactive) | > 100 µM (inactive) | > 100 µM (inactive) | 50.4 µM (inactive) | > 100 µM (inactive) | > 100 | > 100 µM (inactive) | > 100 µM (inactive) | 77.3 µM (inactive) |  | > 100 µM (inactive) |  | 97.7 µM (inactive) | > 100 µM (inactive) |  | 77.6 µM (inactive) | > 100 µM (inactive) |  | 
Nc1c(C(=O)c2ccc(Cl)cc2)[nH]c(NCc2ccccc2)c1C(=S)Nc1ccccc1 |  | 2.37 µM (inactive) | 3 µM (inactive) | 1.66 µM (inactive) | 0.372 µM (active) | 1.79 | 8.15 µM (inactive) | 11.5 µM (inactive) | 2.18 µM (inactive) | 1.79 µM (inactive) | 2.39 µM (inactive) | 1.8 µM (inactive) | 3.03 µM (inactive) | 1.83 µM (inactive) | 1.77 µM (inactive) | 5.2 µM (inactive) |  | 5.31 µM (inactive) | 9.98 µM (inactive)
CC(C)C1CC(CO)(CNc2nc(N)nc(Cl)c2C=O)C1 (stereo not drawn) |  | 1.89 µM (inactive) | 17.1 µM (inactive) | 4.81 µM (inactive) | 1.97 µM (inactive) | 4.43 | 2 µM (inactive) | 12.3 µM (inactive) | 12.9 µM (inactive) | 11 µM (inactive) | 2.22 µM (inactive) | 2.04 µM (inactive) | 4.79 µM (inactive) | 16.6 µM (inactive) | 8.22 µM (inactive) | 2.17 µM (inactive) | 11.1 µM (inactive) | 2.1 µM (inactive) | 15.1 µM (inactive)
OC(/C(=N/c1ccccc1)c1ccccc1)c1ccccc1 (stereo not drawn) | 3.53 µM (inactive) | 9.46 µM (inactive) | 23.1 µM (inactive) | 10.2 µM (inactive) |  | 29 | 3.57 µM (inactive) | 4.05 µM (inactive) | 11.3 µM (inactive) | 4.49 µM (inactive) | 4.4 µM (inactive) | 12.4 µM (inactive) | 4.99 µM (inactive) | 9.71 µM (inactive) | 6.5 µM (inactive) | 11.9 µM (inactive) | 2.22 µM (inactive) |  | 16.1 µM (inactive)
CC(=O)NC(ON1C(=O)COc2ccccc21)C(Cl)(Cl)Cl (stereo not drawn) | > 100 µM (inactive) | > 100 µM (inactive) | > 100 µM (inactive) | > 100 µM (inactive) | > 100 µM (inactive) | > 100 | > 100 µM (inactive) | > 100 µM (inactive) | > 100 µM (inactive) | > 100 µM (inactive) | > 100 µM (inactive) | > 100 µM (inactive) | > 100 µM (inactive) | > 100 µM (inactive) | > 100 µM (inactive) | > 100 µM (inactive) | > 100 µM (inactive) |  | 
O=C(c1cc2ccccc2[nH]1)N1C2CCC1CN(CCOC(c1ccc(F)cc1)c1ccc(F)cc1)CC2 (stereo not drawn) |  | 2.26 µM (inactive) | > 100 µM (inactive) | > 100 µM (inactive) | > 100 µM (inactive) | 3.24 | 52 µM (inactive) | 5 µM (inactive) | 34.9 µM (inactive) | 9.2 µM (inactive) | 40.1 µM (inactive) | 9.48 µM (inactive) | 8.28 µM (inactive) | 9.89 µM (inactive) | 4.48 µM (inactive) | 6.81 µM (inactive) | > 100 µM (inactive) | 2.79 µM (inactive) | > 100 µM (inactive)

From ChEMBL document CHEMBL1201862, “PubChem BioAssay data set” (2004)
